# Source: PubChem BioAssay AID2305 (GlaxoSmithKline (GSK), 2010)
# Test system: P. falciparum 3D7 growth, pLDH absorbance
# Experiment: blood-stage malaria parasite growth potency – strain 3D7, dose response (AID 2305)
row,SMILES,IC50 [µM]
1,Cc1cc(CN2CC[C@H](NC(=O)c3ccc(Cl)c(Cl)c3)C2)ccc1OCCCN(C)C,0.84
2,CCCC(C)NC(=O)/C=C/c1ccccc1-c1cccc(OC)c1 (stereo unspecified),1.25
3,c1ccc(-n2ncc(CNCc3ccc(-c4ccc(-c5nc6ccccc6[nH]5)s4)cc3)n2)cc1,1.4
4,CC(C)(C)c1cc(C(=O)Nc2ccc(C(=N)N)cc2)c(O)c(C(C)(C)C)c1,0.76
5,O=c1cc(NCCCNC2CCOc3c(I)cc(Cl)cc32)[nH]c2ccccc12 (stereo unspecified),0.83
6,CN1CC=C(c2c[nH]c3ccc(Oc4ccccc4)cc23)CC1,0.25
7,CCOC(=O)c1cnc2c(OC)cc(OC)c(Cl)c2c1Nc1ccccc1,0.87
8,O=C(Nc1cccc(CN2CCCN(Cc3ccc(O)cc3)CC2)c1)c1cccc(Cl)c1,0.91
9,Cn1cncc1C(=O)Nc1ccc(-c2ccc(-c3nc4ccc(C(F)(F)F)cc4[nH]3)cc2)cc1,0.56
10,CN1CCN(CCCN(Cc2ccc(-c3ccc(CNCc4ccc5c(c4)OCO5)cc3)cc2)C(=O)Nc2ccccc2)CC1,0.71
11,Cc1ccc(-c2nc(N3CCN(C(=O)c4ccco4)CC3)c3ccc(Cl)cc3n2)cc1,1.21
12,COc1ccc(C(C(=O)NC2CCN(C[C@H](O)c3ccnc4ccc(OC)cc34)CC2)N2CCN(c3ccc(F)cc3)CC2)cc1 (stereo partly specified),0.21
13,CC(=O)Nc1ccc(CNC2Cc3ccc(-c4ccc(Cl)c(Cl)c4)cc3C2)cc1 (stereo unspecified),1
14,COc1ccc(CNC2Cc3ccccc3C2)cc1-c1ccc(S(=O)(=O)NCCN2CCCC2)s1,0.19
15,c1cc(CNCCc2ccncc2)cc(-c2csc(-c3nc4ccccc4[nH]3)c2)c1,0.26
16,CN(C)CCCn1cc(C(=O)OC2C[C@H]3CC[C@@H](C2)N3C)c2cc(-c3ccccc3)ccc21 (stereo partly specified),0.84
17,O=C(NC1CCN(c2ccnc3cc(Cl)ccc23)C1)c1ccc(F)cc1F (stereo unspecified),0.37
18,FC(F)(F)c1cc(Nc2ncnc3ccc(Br)cc23)ccc1OCc1ccccc1,1.08
19,CN1CCN(Cc2ccc(-c3cccc(-c4nc5ccccc5[nH]4)c3)cc2)CC1,1.39
20,CC(C)COc1ccc(Cl)cc1Cc1nc(-c2nc3ccc(CN4CCCCC4)cc3[nH]2)co1,0.74
21,COc1ccc2nccc(N3CCCN(CCNCc4ccc5c(n4)NC(=O)CS5)CC3)c2n1,0.15
22,COc1cccc(Nc2nnc(SCC(=O)NNC(=O)c3ccccn3)s2)c1,0.38
23,CC(=O)Nc1ccc(OCCN(CC(F)(F)F)c2ccc(C#N)cc2C(F)(F)F)cc1,0.77
24,COC(=O)c1ccc2nc(-c3cc(OC)c(O)c(C(=O)NC4CCN(Cc5ccccc5)CC4)c3)[nH]c2c1,1.18

row,SMILES,IC50 [µM]
1,O=C(Nc1cccc(-c2nn3ccccc3c2-c2ccnc(Nc3ccc(C(=O)N4CCOCC4)cc3)n2)c1)c1c(F)cccc1F,0.38
2,CCCCCc1cnc2nc(N)nc(N)c2c1C,0.21
3,COc1ccc2nccc(NN=Cc3ccccc3)c2c1,0.11
4,O=C(NC1CCCCN(Cc2ccccc2O)C1)c1ccc(-c2ccccc2)cc1 (stereo unspecified),0.76
5,Cc1cc(C(F)(F)F)n2nc(C(=O)N(Cc3cncn3Cc3ccccc3F)CC3CC3)cc2n1,0.96
6,CCNc1cc(C(=O)N[C@@H](Cc2ccc(Cl)cc2)[C@H](O)CNC2CCCCC2)cc(N2CCCCS2(=O)=O)c1,0.15
7,COc1ccc(C(=O)Nc2ccc3nc(N4CCCCC4)cc(C)c3c2)cc1[N+](=O)[O-],0.78
8,COc1cc2c(cc1S(=O)(=O)c1ccc(NC(=O)Nc3ccc(F)cc3)cc1)CCN(C)CC2,0.47
9,Cc1nc2ccccn2c1C1(O)C(=O)Nc2c(Cl)cc(Cl)cc21 (stereo unspecified),1.59
10,Cc1cc(-c2cccc(CNC3CCN(C)CC3)c2)ccc1S(=O)(=O)NC1CCC1,0.73
11,O=c1cc(NCCNCc2cccc(-c3ccccc3)c2)[nH]c2ccccc12,1.03
12,O=C(/C=C/c1ccc(O)cc1)NC1CCC(CN2CCC(c3c[nH]c4ccccc34)CC2)CC1 (stereo unspecified),0.74
13,CCCC1N=C(N)N=C(N)N1c1cccc(C(F)(F)F)c1 (stereo unspecified),0.59
14,O=C(/C=C/c1ccc(Cl)c(Cl)c1)NCCCCCN1CCCN(C(=O)Nc2ccc(Cl)c(Cl)c2)CC1,0.86
15,COc1cc(OC)c(NC(=O)C2c3ccccc3C(=O)N(CC(C)C)C2c2cccs2)cc1Cl (stereo unspecified),0.05
16,COc1ccc2cc(-c3nc(-c4c(Cl)cccc4Cl)[nH]c3-c3ccnc(NCCCN4CCCCC4C)c3)ccc2c1 (stereo unspecified),0.95
17,Cc1cc(Cc2ccc(S(=O)(=O)c3cc4c(cc3O)CCN(C)CC4)cc2)ccc1Cl,0.91
18,COc1ccc2nccc([C@@H](O)CN3CCC(NCc4ccc5sc(=O)[nH]c5c4)CC3)c2c1,0.29
19,CCc1ccc(Cc2cnc3nc(N)nc(N)c3c2C)cc1,0.2
20,CCCOc1ccccc1-c1nc2[nH]c3c(c2c(=O)[nH]1)CCN(C)C3,0.37
21,O=C(/C=C/c1ccc(Cl)c(Cl)c1)N1CCC(CCN2CCC(c3c[nH]c4ccccc34)CC2)CC1,0.6
22,Oc1cccc(-c2nc3ccc(C4=N[C@H]5CCCC[C@H]5N4)cc3[nH]2)c1,0.59
23,CC(CCc1ccccc1)NCC(O)c1ccc2c(c1)S(=O)(=O)c1ccccc1N2 (stereo unspecified),1.22
24,O=C(Nc1ccc(-c2ccccc2)cc1)Nc1cccc(Cn2cnc(N3CCCNCC3)cc2=O)c1,1.08

row,SMILES,IC50 [µM]
1,CN(C)Cc1ccc(-c2ccc3c(Nc4ccc(Cl)cc4F)ccnc3c2)o1,0.24
2,COc1ccc(/C=C/C(=O)Nc2ccc(-c3ccncc3)cc2)cc1CCCN(C)C,0.75
3,COc1ccc2c(NN=Cc3ccccc3F)ccnc2c1,0.21
4,O=S(=O)(Nc1cccc(CCN2CCC(N3CCCCC3)CC2)c1)c1ccc2c(c1)OCCO2,1.23
5,C[C@H](NC(=O)c1c(CN2CCN(C(=O)C(C)(C)C)CC2)c(-c2cccs2)nc2ccccc12)C1CCCCC1,1.18
6,Cc1cc(N[C@@H](Cc2ccccc2)C(=O)NCc2cccc(F)c2)nc(NCc2ccccc2C)n1,0.98
7,COc1ccc(CNCCc2cccs2)cc1-c1ccc(S(=O)(=O)NCCN2CCCC2)s1,0.88
8,CCN(CC)c1ccc(NC(=S)NC2CCN(CCCCCNC(=O)/C=C/c3ccc(Cl)c(Cl)c3)CC2)cc1,0.88
9,O=[N+]([O-])c1ccc(C=NNc2nc3ccccc3[nH]2)cc1,0.28
10,COc1ccc2nc(-c3ccccc3)cc(NCCN(C)C)c2c1,0.73
11,COc1ccc2nccc([C@@H](O)CN3CCC(NC(=O)c4cc5c(F)cc(F)cc5[nH]4)CC3)c2n1,1.39
12,CC=CCON1C(N)=NC(N)=NC1(C)C,0.03
13,CCc1cn2c3c(cc(C(=O)N[C@@H](Cc4ccccc4)[C@H](O)CNC4CCOCC4)cc13)N(CC(F)(F)F)S(=O)(=O)CC2,0.03
14,COCc1nc(N)nc(N)c1-c1ccc(Cl)c(Cl)c1,1.02
15,Cn1c(Nc2cc(C(C)(C)C)on2)nc2cc(Nc3ccnc(Nc4cccc(S(=O)(=O)N5CCOCC5)c4)n3)ccc21,0.53
16,COc1cccc(C(=O)NCCc2cccc(Cl)c2)c1Oc1ccccc1,0.84
17,Nc1ncc(-c2ccc(Br)cc2)c(N)n1,0.92
18,Nc1c(-c2ccc(C(=O)NCCNCc3ccccc3)cc2)cnn1-c1ccc(C(F)(F)F)cc1,1.16
19,O=C(Nc1ccc(OC(F)(F)F)cc1)NC1CCN(c2ccnc3ccccc23)CC1,0.3
20,O=C(/C=C/c1ccc(Cl)cc1)NCCCCCN1CCCC(C(=O)Nc2ccc(Cl)cc2)C1 (stereo unspecified),1.05
21,Cc1ccc(-c2nc3ccccc3o2)cc1NCc1cc(Cc2ccccc2)ccc1O,1.03
22,Cc1noc(-c2ccccc2)c1NC(=O)N1CCN(CCCCCCNC(=O)/C=C/c2ccc(Cl)c(Cl)c2)CC1,0.88
23,CCCC(=O)Nc1ccc(OCCN(Cc2ccccc2OC(F)(F)F)c2ccc(C(F)(F)F)c(C#N)c2)cc1,0.79
